Here are results for 41 molecules from PubChem BioAssay AID651717 (Broad Institute, 2012).

SMILES strings stand for the structures.

The test system of the assay is mESC Bmi1-luciferase reporter, firefly/renilla ratio, 24 h. Description: Bmi1-luciferase reporter activators in mESC, dose response, esBAF inhibitor project, mouse embryonic stem cells, cherry-pick (AID 651717).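 Also: luciferase knocked into Bmi1 locus with EF-1a renilla as cell number control; rising ratio signals esBAF inhibition which derepresses Bmi1.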
Turning to `Cc1cccc(NC(=O)c2ccccn2)c1C`, the AC40 was 3.69 µM.

Consider `CC(C)(C)C(=O)N1CCN(c2nc3ccccc3s2)CC1`, for which the AC40 was 0.702 µM. On to `COc1ccc(/C=N/Nc2nc(C)nc(N)n2)cc1`, for which the AC40 is 15.5 µM. In the case of `O=S(=O)(c1ccc2ccccc2c1)N1CCN(S(=O)(=O)c2c(F)cccc2F)CC1` it was 1.26 µM.

With `Cc1ccc2oc3ccccc3c(=O)c2c1`, the AC40 is 7.05 µM.

For `Cc1ccc2c3c([nH]c2c1C)-c1nonc1CC3`, the AC40 was 4.53 µM. `COC(=O)Cc1ccc(OCc2ccc(Cl)nc2)cc1`: the AC40 is 6.74 µM. In the case of `COc1ccc(-c2cc(C(=O)N3CCN(c4ccccc4)CC3)no2)cc1` it was 5.94 µM; in that of `C/C(=C\C(=O)c1cccnc1)Nc1ccc(C)c(C)c1`, 3.36 µM. In the case of `CC(=O)Oc1ccc(-c2csc(Nc3ccc(Cl)cn3)n2)cc1` it was 2.19 µM. With `CCn1c(COc2ccccc2)nc2ccccc21`, the AC40 is 22 µM.

With `CO[C@@H]1CN(C)C(=O)c2cc(NC(=O)c3nc4ccccc4s3)ccc2OC[C@@H](C)N(Cc2cccnc2)C[C@H]1C`, the AC40 is 19.8 µM. In the case of `Cc1cccc(-c2nc(C#N)c(N3CCCCCC3)o2)c1` it was 16.7 µM. On to `Fc1ccccc1NC(=S)N1CCC(c2ccccc2)C1` (stereo unspecified), for which the AC40 is 0.517 µM. Take `c1ccc(Nc2cccc(Nc3ccccc3)n2)cc1`: the AC40 was 4.8 µM.

As to `Cc1noc(C)c1C(=O)Nc1nc2ccccc2s1`, the AC40 was 3.83 µM. `O=C(CN1CCCCC1)Nc1nc(-c2ccccc2)cs1`: the AC40 was 11.5 µM. As for `Cc1ccnc(NC(=O)c2ccc(OCc3c(C)noc3C)cc2)c1`, the AC40 is 3.44 µM.

In the case of `COc1ccc(C(O)c2nc(-c3ccc4ccccc4c3)cs2)cc1` (stereo unspecified), the AC40 was 13 µM.

With `CO[C@@H]1CN(C)C(=O)c2ccc(NC(=O)Nc3ccc4c(c3)OCO4)cc2OC[C@@H](C)NC[C@@H]1C`, the AC40 is 2.93 µM.

As to `CC(=O)c1ccc(N2CCN(C(=O)c3ccc(Cn4c(=S)[nH]c5ccc(N6CCOCC6)cc5c4=O)cc3)CC2)cc1`, the AC40 is 24.8 µM. As to `CSc1ccc(CNc2ccc(C)c(C)c2)cc1`, the AC40 is 2.83 µM. In the case of `COc1cccc(NC(=O)c2ccccc2Br)c1` it was 4.25 µM; in that of `CCCCN1C(=S)NC[C@@H]1Cc1cccc2ccccc12`, 17.3 µM; in that of `CC(Cc1cccs1)NC(=O)c1cccc(Cl)c1` (stereo unspecified), 2.76 µM. `COC(=O)CN(C)C(=O)c1ccc2nc(Cc3cccc(Cl)c3)oc2c1`: the AC40 was 2.4 µM. Take `COc1ccc(C2=Nc3ccccc3NC(=O)C2N(C(=O)c2cc3ccccc3[nH]2)c2ccccc2)cc1` (stereo unspecified): the AC40 was 1.44 µM.

Regarding `O=S(=O)(Nc1cccc(-c2ccc(N3CCCCCC3)nn2)c1)c1ccc(C(F)(F)F)cc1`, the AC40 is 13.1 µM. In the case of `CC1CCc2sc(C(=O)NC3CCCCC3)cc2C1` (stereo unspecified), the AC40 is 1.08 µM. In the case of `CC(C)CC1C(=O)N(Cc2cn(CCC3OCCCO3)nn2)CCS(=O)(=O)N1Cc1ccc(-c2ccc(Cl)nc2)cc1` (stereo unspecified) it was 12.9 µM. In the case of `OC(c1ccccc1)c1nc(-c2ccc3c(c2)OCO3)cs1` (stereo unspecified) it was 3.37 µM; in that of `Cc1ccnc(NC(=O)c2ccc(Cl)c(S(=O)(=O)N3CCCCC3)c2)c1`, 11.7 µM. In the case of `COc1ccc2c(=O)c3ccccc3oc2c1`, the AC40 was 4.7 µM. For `O=P(O)(O)c1ccccc1OCCOCCOCCOCCOc1ccccc1P(=O)(O)O`, the AC40 is 8.04 µM. For the molecule `COc1ccc(C(=O)Nc2cc3c4c(c2)CC(=O)N4CCC3)c(OC)c1`, the AC40 is 5.13 µM.

Take `NCCNC(=O)c1c(NC(=O)c2ccccc2)sc2c1CCCC2`: the AC40 is 34.4 µM.

For `c1ccc(Nc2nc3ccccc3n3nnnc23)cc1`, the AC40 was 7.2 µM. Consider `COc1ccc(OCc2cc(C(=O)N(C)C(C)c3ccon3)no2)c(Cl)c1` (stereo unspecified), for which the AC40 is 23.4 µM. For `Cc1ccn2c(CC(C)(C)C)c(-c3ccc(F)cc3)nc2c1`, the AC40 was 1.38 µM.

In the case of `COc1ccc(NC(=O)O/N=C/c2ccccc2)cc1`, the AC40 is 5.24 µM. On to `CC(=O)c1ccc(OCc2cc(C(=O)N(C)Cc3ccccn3)no2)cc1`, for which the AC40 was 6.33 µM.
